Like-named read-outs stand apart in the source and are kept apart here.
Legend:
[1] = test system: Ba/F3-FGFR1-transfected cells; experiment: Ba/F3-FGFR1 (plus IL3) cellular proliferation assay, counterscreen with 10 ng/ml murine IL3; assay type: cell-based; details: plus IL3 (10 ng/ml murine IL3, counterscreen); read-out: BAF3-FGFR1 (PLUS IL3) pIC50 (converted)
Summary of the method: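 Ba/F3-FGFR1 cells (20000/well) in RPMI-1640 with 10% FBS exposed to compound for 24 h at 37° C., 5% CO2, then Alamar Blue (resazurin) added for 4 h; fluorescence read at ex 540/em 590 nm. Counterscreen run identically with 10 ng/ml murine IL3.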

FGFR3 (h) = FGFR3 (h) (Homo sapiens, UniProt P22607); experiment: FGFR3 (enzymatic assay), TR-FRET; assay type: biochemical; details: read-out: FGFR 3 pIC50 (converted)
Sequence of FGFR3 (h) (P22607 23-806): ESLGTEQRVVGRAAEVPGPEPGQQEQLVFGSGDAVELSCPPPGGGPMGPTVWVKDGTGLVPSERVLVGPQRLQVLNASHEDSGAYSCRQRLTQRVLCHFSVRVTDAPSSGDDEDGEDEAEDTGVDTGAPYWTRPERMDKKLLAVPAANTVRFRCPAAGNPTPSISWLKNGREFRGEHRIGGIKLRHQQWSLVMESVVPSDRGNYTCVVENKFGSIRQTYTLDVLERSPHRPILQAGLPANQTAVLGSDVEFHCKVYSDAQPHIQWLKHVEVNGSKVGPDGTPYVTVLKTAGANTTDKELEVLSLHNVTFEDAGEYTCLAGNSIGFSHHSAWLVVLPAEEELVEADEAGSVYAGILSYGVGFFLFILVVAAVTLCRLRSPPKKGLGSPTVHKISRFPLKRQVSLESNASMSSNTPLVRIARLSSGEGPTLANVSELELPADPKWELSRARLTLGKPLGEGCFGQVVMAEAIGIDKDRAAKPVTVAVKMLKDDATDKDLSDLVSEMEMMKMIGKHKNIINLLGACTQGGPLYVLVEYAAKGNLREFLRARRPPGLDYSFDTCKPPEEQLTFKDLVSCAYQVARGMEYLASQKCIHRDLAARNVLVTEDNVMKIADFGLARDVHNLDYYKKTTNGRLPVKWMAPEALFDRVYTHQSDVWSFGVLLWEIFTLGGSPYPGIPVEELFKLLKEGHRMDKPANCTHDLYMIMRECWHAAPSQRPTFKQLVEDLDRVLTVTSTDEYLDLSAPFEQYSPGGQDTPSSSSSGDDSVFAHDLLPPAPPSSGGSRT
Description: Time-Resolved Fluorescence Resonance Energy Transfer (TR-FRET) signal (ex340 nm.

[2] = molecular target: T1, Ba/F3-FGFR1-transfected cells (Homo sapiens, UniProt P11362); experiment: Ba/F3-FGFR1 (minus IL3) cellular proliferation assay, Alamar Blue; assay type: cell-based
T1 construct: BAF3-FGFR1 (MIN IL3) pIC50; other: minus IL3
T1 sequence (P11362 whole entry, change not shown): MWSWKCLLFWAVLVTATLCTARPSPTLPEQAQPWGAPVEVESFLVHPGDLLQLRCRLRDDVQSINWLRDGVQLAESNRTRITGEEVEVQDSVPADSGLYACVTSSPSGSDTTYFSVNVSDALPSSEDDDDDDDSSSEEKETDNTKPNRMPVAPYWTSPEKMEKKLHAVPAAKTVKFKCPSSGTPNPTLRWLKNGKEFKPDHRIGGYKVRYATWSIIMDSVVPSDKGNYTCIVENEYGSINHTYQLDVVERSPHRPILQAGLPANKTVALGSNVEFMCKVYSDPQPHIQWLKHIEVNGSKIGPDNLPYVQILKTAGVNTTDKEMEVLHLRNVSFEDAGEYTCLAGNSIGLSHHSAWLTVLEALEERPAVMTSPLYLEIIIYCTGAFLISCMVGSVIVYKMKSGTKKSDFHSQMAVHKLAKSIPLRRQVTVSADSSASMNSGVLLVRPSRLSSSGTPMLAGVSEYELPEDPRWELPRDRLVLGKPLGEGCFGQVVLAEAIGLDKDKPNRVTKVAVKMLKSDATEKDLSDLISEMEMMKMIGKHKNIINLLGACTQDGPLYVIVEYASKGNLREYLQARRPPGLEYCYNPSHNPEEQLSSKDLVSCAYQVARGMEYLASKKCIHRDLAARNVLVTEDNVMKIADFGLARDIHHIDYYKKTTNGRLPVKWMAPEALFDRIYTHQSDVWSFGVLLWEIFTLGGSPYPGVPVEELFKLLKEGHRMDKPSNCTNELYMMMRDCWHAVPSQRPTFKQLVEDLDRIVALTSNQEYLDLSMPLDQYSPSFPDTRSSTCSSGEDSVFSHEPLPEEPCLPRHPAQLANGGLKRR
Summary of the method: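 Ba/F3 cells transfected with FGFR1 (20000 cells/well) were plated onto compound in phenol red-free RPMI-1640 with 10% FBS, 2 mM L-glutamine and gentamycin, then kept 24 h at 37 °C, 5% CO2. Alamar Blue (resazurin) was added for 4 h and fluorescence read at ex 540/em 590 nm.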

[3] = molecular target: T2, Ba/F3-FGFR3-transfected cells (Homo sapiens, UniProt P22607); experiment: Ba/F3-FGFR3 (minus IL3) cellular proliferation assay, Alamar Blue; assay type: cell-based
T2 construct: BAF3-FGFR3 (MIN IL3) pIC50; other: minus IL3
T2 sequence (P22607 whole entry, change not shown): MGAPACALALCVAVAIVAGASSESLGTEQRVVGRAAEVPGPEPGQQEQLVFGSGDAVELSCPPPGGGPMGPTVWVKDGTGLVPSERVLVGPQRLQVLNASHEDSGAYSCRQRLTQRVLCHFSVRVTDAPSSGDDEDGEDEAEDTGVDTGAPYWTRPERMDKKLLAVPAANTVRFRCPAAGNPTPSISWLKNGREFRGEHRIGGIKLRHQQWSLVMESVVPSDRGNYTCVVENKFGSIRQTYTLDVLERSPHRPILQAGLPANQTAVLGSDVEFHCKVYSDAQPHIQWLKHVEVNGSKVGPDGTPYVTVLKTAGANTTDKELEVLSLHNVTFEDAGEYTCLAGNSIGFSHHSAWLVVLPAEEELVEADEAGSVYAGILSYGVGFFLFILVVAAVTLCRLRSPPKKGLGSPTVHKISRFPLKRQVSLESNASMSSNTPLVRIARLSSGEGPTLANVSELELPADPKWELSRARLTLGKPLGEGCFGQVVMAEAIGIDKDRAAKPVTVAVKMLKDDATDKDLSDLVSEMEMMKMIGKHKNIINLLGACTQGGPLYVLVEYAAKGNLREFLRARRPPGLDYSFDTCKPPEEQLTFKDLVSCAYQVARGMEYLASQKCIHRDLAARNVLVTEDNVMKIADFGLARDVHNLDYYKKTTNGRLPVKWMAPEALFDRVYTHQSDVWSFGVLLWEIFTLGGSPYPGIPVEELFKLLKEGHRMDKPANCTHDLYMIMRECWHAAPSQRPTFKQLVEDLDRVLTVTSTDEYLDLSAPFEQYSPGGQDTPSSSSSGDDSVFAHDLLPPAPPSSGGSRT
Summary of the method: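 Ba/F3 cells transfected with FGFR3 were seeded at 20000 cells/well in phenol red-free RPMI-1640 with 10% FBS over compound in DMSO and kept 24 hours at 37° C, 5% CO2. Alamar Blue (resazurin) was then added for 4 hours and fluorescence read at ex 540/em 590 nm. The counterscreen repeated this with 10 ng/ml murine IL3.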

FGFR4 (h) = FGFR4 (h) (Homo sapiens, UniProt P22455); experiment: FGFR4 (enzymatic assay), TR-FRET; assay type: biochemical; details: FGFR 4 pIC50, enzymatic assay
Sequence of FGFR4 (h) (P22455 22-802): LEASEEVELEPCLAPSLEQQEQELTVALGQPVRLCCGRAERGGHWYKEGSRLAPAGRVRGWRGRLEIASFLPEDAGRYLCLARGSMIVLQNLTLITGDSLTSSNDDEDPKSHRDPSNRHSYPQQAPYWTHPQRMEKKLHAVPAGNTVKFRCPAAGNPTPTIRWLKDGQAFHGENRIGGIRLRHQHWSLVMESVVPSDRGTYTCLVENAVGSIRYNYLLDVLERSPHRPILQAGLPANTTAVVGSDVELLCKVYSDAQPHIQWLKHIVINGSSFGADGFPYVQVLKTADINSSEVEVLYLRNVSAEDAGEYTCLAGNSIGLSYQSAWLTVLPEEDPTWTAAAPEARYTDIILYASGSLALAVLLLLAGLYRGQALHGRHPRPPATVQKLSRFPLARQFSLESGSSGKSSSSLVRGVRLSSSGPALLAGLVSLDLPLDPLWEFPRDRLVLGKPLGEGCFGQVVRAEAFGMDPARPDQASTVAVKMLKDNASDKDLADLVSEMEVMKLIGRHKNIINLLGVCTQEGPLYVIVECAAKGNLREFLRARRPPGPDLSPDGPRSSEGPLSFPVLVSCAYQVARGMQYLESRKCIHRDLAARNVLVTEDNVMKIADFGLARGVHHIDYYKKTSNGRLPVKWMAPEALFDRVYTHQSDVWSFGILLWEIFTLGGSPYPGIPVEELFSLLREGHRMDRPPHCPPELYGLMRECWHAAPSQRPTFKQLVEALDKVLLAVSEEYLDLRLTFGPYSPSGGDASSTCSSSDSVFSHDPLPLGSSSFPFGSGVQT

[4] = average values if tested multiple times

Structure (SMILES)	IC50 [1] [nM]	melting point [°C]	IC50 (FGFR3 (h); [4]) [nM]	BAF3-FGFR1 (MIN IL3) pIC50 [2]	BAF3-FGFR3 (MIN IL3) pIC50 [3]	IC50 (FGFR4 (h); [4]) [nM]	IC50 (FGFR3 (h)) [nM]	IC50 (FGFR4 (h)) [nM]
COc1cc(OC)cc(N(CC(O)C(F)(F)F)c2ccc3ncc(-c4cnn(C)c4)nc3n2)c1 (single isomer, unassigned) [Compound 33]	> 10000	208	0.708	7.60	~7.64	1.41	–	–
COCC(O)CN(c1ccc2ncc(-c3cnn(C)c3)nc2n1)c1cc(OC)cc(OC)c1F (single isomer, unassigned) [Compound 58]	> 10000	94 to 95	1.26	7.51	7.43	2.14	–	–
COc1cc(OC)c(F)c(N(c2ccc3ncc(-c4cnn(C)c4)nc3n2)C(CO)COC(C)C)c1 (single isomer, unassigned) [Compound 76]	> 10000	137 to 138	105	5.55	5.64	214	–	–
COc1cc(/N=c2\ccc3ncc(-c4cnn(C)c4)nc3n2CC(O)COC(C)C)c(F)c(OC)c1 (single isomer, unassigned) [Compound 77]	> 10000	96 to 97	1.78	7.37	7.38	3.02	–	–
COc1cc(OC)c(Cl)c(/N=c2\ccc3ncc(-c4cnn(C)c4)nc3n2CC2CCC(=O)N2)c1Cl (single isomer, unassigned) [Compound 87]	> 9120	160	4.57	6.84	~6.93	38.9	–	–
COc1ccc(Cl)c(/N=c2\ccc3ncc(-c4cnn(C)c4)nc3n2CC2CCC(=O)N2)c1Cl (single isomer, unassigned) [Compound 89]	> 10000	183	97.7	5.18	5.14	~1120	–	–
COc1cc(OC)c(F)c(N(CC2COC(=O)N2)c2ccc3ncc(-c4cnn(C)c4)nc3n2)c1 (single isomer, unassigned) [Compound 111]	> 10000	202	1	7.79	7.58	1.58	–	–
CNCCN(c1ccc2ncc(-c3cnn(C)c3)nc2n1)c1c(F)c(OC)cc(OC)c1F [Compound 3]	> 10000	159	2.57	8.38	~8.04	6.46	–	–
CNCCn1/c(=N/c2c(F)cccc2F)ccc2ncc(-c3cnn(C)c3)nc21 [Compound 44]	> 10000	80	~794	5.12	<5	2820	–	–
COc1cc(/N=c2\ccc3ncc(-c4cnn(C)c4)nc3n2CC2CCC(=O)N2)c(F)c(OC)c1 (stereo not shown) [Compound 45]	> 10000	127	1.35	7.14	7.07	3.98	–	–
COc1cc(OC)cc(N(CC2CCC(=O)N2)c2ccc3ncc(-c4cnn(C)c4)nc3n2)c1 (stereo not shown) [Compound 49]	> 10000	182	1.62	6.78	~6.85	6.31	–	–
COc1cc(/N=c2\ccc3ncc(-c4cnn(C)c4)nc3n2CCCN2CCCC2=O)c(F)c(OC)c1 [Compound 119]	> 3980	–	–	~7.92	~8.07	–	0.708	1
COc1cc(OC)c(F)c(N(CCCN2CCCC2=O)c2ccc3ncc(-c4cnn(C)c4)nc3n2)c1 [Compound 120]	> 10000	–	–	7.27	7.16	–	1.86	3.24
CNCCN(c1ccc2ncc(-c3cnn(C)c3)nc2n1)c1c(F)c(O)cc(OC)c1F [Compound 122]	> 10000	–	–	6.74	6.09	–	2.51	9.55
COc1cc(/N=c2\ccc3ncc(-c4cnn(C)c4)nc3n2CC2COC(=O)N2)c(F)c(OC)c1 (stereo not shown) [Compound 123]	> 10000	–	–	7.21	7.16	–	0.741	2.75
COc1cc(OC)c(F)c(N(CC2COC(=O)N2)c2ccc3ncc(-c4cnn(C)c4)nc3n2)c1 (stereo not shown) [Compound 124]	> 10000	–	–	~7.16	~7.16	–	1.55	4.27
COc1cc(OC)c(F)c(N(Cc2cn[nH]c2)c2ccc3ncc(-c4cnn(C)c4)nc3n2)c1 [Compound 125]	> 10000	–	–	7.61	~7.57	–	0.724	1.58
COc1cc(OC)c(F)c(N(Cc2ccn(C)n2)c2ccc3ncc(-c4cnn(C)c4)nc3n2)c1 [Compound 128]	> 10000	–	–	8.10	8.03	–	1.05	1.29
COc1cc(OC)c(F)c(N(Cc2nccn2C)c2ccc3ncc(-c4cnn(C)c4)nc3n2)c1 [Compound 131]	> 10000	–	–	7.62	7.25	–	2.95	7.41
COc1cc(OC)c(F)c(N(Cc2nncn2C)c2ccc3ncc(-c4cnn(C)c4)nc3n2)c1 [Compound 132]	> 10000	–	–	6.62	~6.64	–	4.27	17.4
COc1cc(OC)cc(N(CCCN2CCCC2=O)c2ccc3ncc(-c4cnn(C)c4)nc3n2)c1 [Compound 134]	> 10000	–	–	6.43	~6.64	–	3.8	11.7
COc1cc(OC)c(F)c(N(Cc2nc(C)c[nH]2)c2ccc3ncc(-c4cnn(C)c4)nc3n2)c1 [Compound 135]	> 10000	–	–	8.82	8.25	–	1.48	1.26
COc1cc(OC)c(F)c(N(Cc2c[nH]c(C)n2)c2ccc3ncc(-c4cnn(C)c4)nc3n2)c1 [Compound 137]	> 10000	–	–	~8.11	7.64	–	1.58	1.7
COc1cc(OC)c(F)c(N(CC2CCC(=O)N2)c2ccc3ncc(-c4cnn(C)c4)nc3n2)c1F (stereo not shown) [Compound 192]	> 10000	–	1.55	7.73	7.78	2.09	–	–
COc1cc(OC)c(F)c(/N=c2\ccc3ncc(-c4cnn(C)c4)nc3n2CC2CCC(=O)N2)c1F (stereo not shown) [Compound 193]	> 10000	–	0.417	8.01	~8.06	0.955	–	–

Source: patent US9309242B2, “Substituted pyrido[2,3-b]pyrazines as FGFR kinase inhibitors” (priority 2011, dated 2016)
